Measured values taken from patent US20250115600A1, “COVALENT MODIFIERS OF AKT1 AND USES THEREOF” (Terremoto Biosciences, Inc., priority 2022, published 2025).

Key:
Experiment in all cases: Live cell target engagement (NanoBRET) in HEK293 cells
Type in all cases: cell-based
[1] = target: AKT1 E17K (Homo sapiens (Human), UniProt P31749, E17K); details: for IC50: HEK293, 2 hours at 37° C.
[2] = target: AKT1 WT (Homo sapiens (Human), UniProt P31749); details: HEK293, 2 hours at 37° C.
[3] = target: AKT2 (Homo sapiens (Human), UniProt P31751); details: HEK293, 2 hours at 37° C.
AKT2, sequence (P31751 whole entry): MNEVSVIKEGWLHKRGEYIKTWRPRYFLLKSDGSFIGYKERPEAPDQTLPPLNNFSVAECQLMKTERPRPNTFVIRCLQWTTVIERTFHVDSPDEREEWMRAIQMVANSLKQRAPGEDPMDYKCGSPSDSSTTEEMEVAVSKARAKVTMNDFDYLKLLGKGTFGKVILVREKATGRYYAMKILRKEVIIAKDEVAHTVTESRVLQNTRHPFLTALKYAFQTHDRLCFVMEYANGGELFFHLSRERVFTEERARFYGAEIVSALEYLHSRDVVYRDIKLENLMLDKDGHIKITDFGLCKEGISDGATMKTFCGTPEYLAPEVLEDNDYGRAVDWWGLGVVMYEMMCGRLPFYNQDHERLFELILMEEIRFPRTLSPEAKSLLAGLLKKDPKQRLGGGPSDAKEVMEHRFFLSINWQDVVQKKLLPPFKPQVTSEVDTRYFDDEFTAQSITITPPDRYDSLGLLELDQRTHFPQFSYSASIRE

AKT1 WT, sequence (P31749 whole entry): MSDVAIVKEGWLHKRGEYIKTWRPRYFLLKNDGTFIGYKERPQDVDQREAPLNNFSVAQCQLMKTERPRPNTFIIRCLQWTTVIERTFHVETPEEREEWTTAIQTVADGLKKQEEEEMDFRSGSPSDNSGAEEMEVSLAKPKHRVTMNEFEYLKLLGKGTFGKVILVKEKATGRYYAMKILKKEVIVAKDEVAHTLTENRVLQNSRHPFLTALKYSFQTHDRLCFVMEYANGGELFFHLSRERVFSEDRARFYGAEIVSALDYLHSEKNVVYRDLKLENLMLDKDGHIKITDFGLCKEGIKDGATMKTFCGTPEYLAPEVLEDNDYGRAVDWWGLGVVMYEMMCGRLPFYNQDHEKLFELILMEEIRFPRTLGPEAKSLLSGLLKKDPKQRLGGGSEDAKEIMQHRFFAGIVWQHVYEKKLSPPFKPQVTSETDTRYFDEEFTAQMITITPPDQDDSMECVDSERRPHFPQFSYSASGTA
AKT1 E17K, sequence (P31749 whole entry E17K): as the sequence (P31749 whole entry) above, with E17K counted along it

| AKT1 E17K IC50: Selectivity vs AKT1 WT [1] | AKT1 E17K IC50: Selectivity vs AKT2 [1] | IC50 [1] | IC50 [2] | IC50 [3] | SMILES |
| --- | --- | --- | --- | --- | --- |
| 5.8 | 37 | < 0.1 µM | < 0.1 µM | 0.1 to 0.5 µM | Nc1ncccc1-c1nc2ccc(-c3cccnc3)nc2n1-c1ccc(CNC(=O)c2ccc(O)c(C=O)c2)cc1 [Compound 71, N-(4-(2-(2-aminopyridin-3-yl)-5-(pyridin-3-yl)-3H-imidazo[4,5-b]pyridin-3-yl)benzyl)-3-formyl-4-hydroxybenzamide] |
| 2.1 | 32 | < 0.1 µM | < 0.1 µM | 0.1 to 0.5 µM | Nc1ncccc1-c1nc2ccc(-c3ccccc3)nc2n1-c1ccc(CNC(=O)c2cc(Br)c(O)c(C=O)c2)cc1 [Compound 50, N-({4-[2-(2-aminopyridin-3-yl)-5-phenylimidazo[4,5-b]pyridin-3-yl]phenyl}methyl)-3-bromo-5-formyl-4-hydroxybenzamide] |
| 3.5 | 830 | < 0.1 µM | < 0.1 µM | > 0.5 µM | Nc1ncccc1-c1nc2ccc(C3CC3)nc2n1-c1ccc(CNC(=O)Cc2ccc(C=O)c(O)c2)cc1 [Compound 66, N-({4-[2-(2-aminopyridin-3-yl)-5-cyclopropylimidazo[4,5-b]pyridin-3-yl]phenyl}methyl)-2-(4-formyl-3-hydroxyphenyl)acetamide] |
| 4.4 | 88 | < 0.1 µM | < 0.1 µM | > 0.5 µM | Nc1ncccc1-c1nc2ccc(-c3cccnc3)nc2n1-c1ccc(CNC(=O)Cc2ccc(C=O)c(O)c2F)cc1 [Compound 79, N-({4-[2-(2-aminopyridin-3-yl)-5-(pyridin-3-yl)imidazo[4,5-b]pyridin-3-yl]phenyl}methyl)-2-(2-fluoro-4-formyl-3-hydroxyphenyl)acetamide] |
| 1.5 | 5.2 | < 0.1 µM | < 0.1 µM | 0.1 to 0.5 µM | Nc1ncccc1-c1nc2ccc(-c3cccc(N4CCOCC4)c3)nc2n1-c1ccc(CNC(=O)c2cc(F)c(O)c(C=O)c2)cc1 [Example 12, N-(4-(2-(2-aminopyridin-3-yl)-5-(3-morpholinophenyl)-3H-imidazo[4,5-b]pyridin-3-yl)benzyl)-3-fluoro-5-formyl-4-hydroxybenzamide] |

The next lines start with the compound.

| SMILES | AKT1 E17K IC50: Selectivity vs AKT1 WT [1] | AKT1 E17K IC50: Selectivity vs AKT2 [1] | IC50 [1] | IC50 [2] | IC50 [3] |
| --- | --- | --- | --- | --- | --- |
| CC(=O)Nc1cc(CCNCc2ccc(-n3c(-c4cccnc4N)nc4cccnc43)cc2)ccc1C=O [Compound 98, N-(5-{2-[({4-[2-(2-aminopyridin-3-yl)imidazo[4,5-b]pyridin-3-yl]phenyl}methyl)amino]ethyl}-2-formylphenyl)acetamide] | 2.5 | 38 | < 0.1 µM | < 0.1 µM | > 0.5 µM |
| Nc1ncccc1-c1nc2cccnc2n1-c1ccc(CNC(=O)c2cnc(O)c(C=O)c2)cc1 [Compound 46, N-(4-(2-(2-aminopyridin-3-yl)-3H-imidazo[4,5-b]pyridin-3-yl)benzyl)-5-formyl-6-hydroxynicotinamide] | – | – | > 0.5 µM | > 0.5 µM | > 0.5 µM |
| Nc1ncccc1-c1nc2ccc(-c3ccccc3)nc2n1-c1ccc(CC(=O)NC2(c3ccc(C=O)c(O)c3)CC2)cc1 [Example 11, 2-{4-[2-(2-aminopyridin-3-yl)-5-phenylimidazo[4,5-b]pyridin-3-yl]phenyl}-N-[1-(4-formyl-3-hydroxyphenyl)cyclopropyl]acetamide] | 3.1 | 28 | < 0.1 µM | < 0.1 µM | 0.1 to 0.5 µM |
| CC(=O)Nc1c(C=O)ccc(CCNCc2ccc(-n3c(-c4cccnc4N)nc4ccc(-c5ccccc5)nc43)cc2)c1F [Compound 90, N-(3-{2-[({4-[2-(2-aminopyridin-3-yl)-5-phenylimidazo[4,5-b]pyridin-3-yl]phenyl}methyl)amino]ethyl}-2-fluoro-6-formylphenyl)acetamide] | 0.65 | 1.6 | < 0.1 µM | < 0.1 µM | < 0.1 µM |
